Values quoted from earlier work in US20240315991A1, “USES OF HNF4 ALPHA AGONISTS” (Sanford Burnham Prebys Medical Discovery Institute, priority 2023, published 2024).

Key:
[1] = target: T1, HNF4α (Homo sapiens, UniProt P41235); conditions: GFP expressed under the control of the human insulin promoter; cited from earlier work
T1 sequence (P41235 1-474): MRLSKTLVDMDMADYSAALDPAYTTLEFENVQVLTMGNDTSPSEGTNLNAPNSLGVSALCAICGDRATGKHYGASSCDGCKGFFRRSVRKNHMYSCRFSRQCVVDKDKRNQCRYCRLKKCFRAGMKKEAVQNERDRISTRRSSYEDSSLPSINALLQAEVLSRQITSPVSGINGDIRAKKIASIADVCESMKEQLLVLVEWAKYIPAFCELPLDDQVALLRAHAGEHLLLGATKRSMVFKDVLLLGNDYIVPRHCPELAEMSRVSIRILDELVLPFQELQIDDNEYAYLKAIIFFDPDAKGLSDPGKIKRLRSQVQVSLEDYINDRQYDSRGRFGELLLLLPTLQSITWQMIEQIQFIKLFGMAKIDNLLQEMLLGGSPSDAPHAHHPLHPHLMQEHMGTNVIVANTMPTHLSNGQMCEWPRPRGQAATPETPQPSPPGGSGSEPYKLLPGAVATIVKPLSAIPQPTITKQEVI

[2] = cited from earlier work
[3] = target: T1, HNF4α; conditions: cited from earlier work

SMILES | agonism of HNF4α [1] | oral bioavailability [2] | specificity for HNF4α ([3]; HNF4α siRNA ablates their effect) | activation of HNF4α, potency compared with Alverine and Benfluorex [3]
CCN(CCCc1ccccc1)CCCc1ccccc1 [Alverine] | weak agonists |  |  | 
CC(Cc1cccc(C(F)(F)F)c1)NCCOC(=O)c1ccccc1 (centres unmarked) [Benfluorex] | weak agonists |  |  | 
COc1cc(/C=C/C(=O)NCCc2ccc(O)cc2)ccc1O [NFT, N-trans feruloyltyramine, reference compound] |  | poor | exhibit specificity for HNF4α | much more potent activators
